Test results: patent publication US20100010058A1, “Azoline Compounds for Combating Arthropod Pests” (BASF SE, priority 2006, published 2010)

Columns and labels:
Assay type in all cases: in vivo
[1] = system: Green Peach Aphid (Myzus persicae); test: Activity against Green Peach Aphid (Myzus persicae), pepper plant leaf dip test; details: foliar, 120 h, pepper plant leaves dipped, after 5 days, in comparison with untreated controls
Protocol: 2.3. Activity against Green Peach Aphid (Myzus persicae)
Pepper plants in the 2nd leaf-pair stage (variety ‘California Wonder’) are infested with approximately 40 laboratory-reared aphids by placing infested leaf sections on top of the test plants. The leaf sections are removed after 24 hours. The leaves of the intact plants are dipped into gradient solutions of the test compound. Aphid mortality on the treated plants, relative to mortality on check plants, is determined after 5 days.

[2] = system: Brown Planthopper (nilaparvata lugens); test: Activity against Brown Planthopper (nilaparvata lugens), sprayed rice plants; details: assessed 24, 48 and 72 hours after treatment, in comparison with untreated controls
Protocol: 2.4 Activity against Brown Planthopper (nilaparvata lugens)
The active compounds were formulated as a 20:80 acetone:water solution. Surfactant (Alkamuls EL 620) was added at the rate of 0.1% (vol/vol).
Potted rice plants of 3-4 weeks of age are sprayed with 10 ml of the test solution using air driven hand atomizer (Devillbis atomizer) at 1.7 bar. The treated plants are allowed to dry for about 1 hour and covered with Mylar cages. The plants are inoculated with 10 adults of the specie (5 male and 5 females) and kept at 25-27° C. and 50-60% humidity for 3 days. Mortality is assed after 24, 48 and 72 hours after treatment. Dead insects are usually found in the water surface. Each treatment is replicated once.

[3] = system: Vetch Aphid (Megoura viciae); test: Activity against Vetch Aphid (Megoura viciae), bean leaf disk microtiterplate test; details: foliar, 144 h, bean leaf disks sprayed, adult aphids, 6 days, compared to 0% mortality of untreated controls
Protocol: 2.1 Activity against Vetch Aphid (Megoura viciae)
The active compounds were formulated in DMSO/water (1:3). Bean leaf disks were placed into microtiterplates filled with 0.8% agar-agar and 2.5 ppm OPUS™. The leaf disks were sprayed with 2.5 μl of the test solution and 5 to 8 adult aphids were placed into the microtiterplates which were then closed and kept at 22-24° C. and 35-45% under fluorescent light for 6 days. Mortality was assessed on the basis of vital, reproduced aphids. Tests were replicated 2 times.

[4] = system: Cotton Aphid (Aphis gossypii); test: Activity against Cotton Aphid (Aphis gossypii), cotton cotyledon dip test; details: 120 h, cotton cotyledons dipped, mortality counts after 5 days
Text: 2.2 Activity against Cotton Aphid (Aphis gossypii)
The active compounds were formulated in acetone/water (1:1) and 100 ppm Kinetic™ surfactant. Cotton plants at the cotyledon stage (one plant per pot) were infested by placing a heavily infested leaf from the main colony on top of each cotyledon. The aphids were allowed to transfer to the host plant overnight, and the leaf used to transfer the aphids was removed. The cotyledons were dipped in the test solution and allowed to dry. After 5 days, mortality counts were made.

| Structure (SMILES) | mortality at 300 ppm [1] | mortality at 300 ppm [2] | mortality at 2500 ppm [3] | mortality at 300 ppm [4] |
| --- | --- | --- | --- | --- |
| Cc1cccc(CN(NC2=NCCS2)c2cccc(Cl)c2Cl)c1 [Example 7, N-(2,3-Dichloro-phenyl)-N′-(4,5-dihydro-thiazol-2-yl)-N-(3-methyl-benzyl)-hydrazine] | > 50% | ≥ 50% | > 75% | > 50% |
| CC(C)=CCN(NC1=NCCS1)c1cccc(C)c1C [Example 30, N′-(4,5-Dihydro-thiazol-2-yl)-N-(2,3-dimethyl-phenyl)-N-(3-methyl-but-2-enyl)-hydrazine] | – | – | > 75% | – |
